Results published in patent US20260262643A1, “HERBICIDAL BENZOXAZINES” (FMC CORPORATION, priority 2022, published 2026).

How the values were obtained:
ragweed [1] = assay: Test C postemergence; assay type: in vivo, Ambrosia artemisiifolia; conditions: postemergence, 10 days
Method in brief: (§1)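 Seeds in loam–sand blend received preemergence directed soil spray of test chemicals in non-phytotoxic solvent with surfactant; postemergence treatment was applied at one- to two-leaf stage (2–10 cm). After 10 days in greenhouse, injury rated visually versus untreated controls, 0 (no effect) to 100 (complete control).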

soybean [2] = assay: Test C preemergence; assay type: in vivo, Glycine max; conditions: preemergence, 0 to 100 scale (0 no effect, 100 complete control)
Method in brief: as §1

kochia [3] = assay: Test C preemergence; assay type: in vivo, Bassia scoparia; conditions: preemergence, 0 to 100 scale (0 no effect, 100 complete control)
Method in brief: as §1

blackgrass [4] = assay: Test C postemergence; assay type: in vivo, Alopecurus myosuroides; conditions: postemergence, 10 days
Method in brief: as §1

corn [5] = assay: Test C postemergence; assay type: in vivo, Zea mays; conditions: postemergence, 10 days
Method in brief: as §1

horseweed = assay: Test C postemergence; assay type: in vivo, Erigeron canadensis; conditions: postemergence, 10 days
Method in brief: as §1

ducksalad = assay: Test D flooded paddy test; assay type: in vivo, Heteranthera limosa; conditions: 250 g ai/ha, applied to paddy water, visual rating after 13 to 14 days, scale 0 to 100 (0 no effect, 100 complete control)
Method in brief: (§2)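 Post-flood water application at the 2-leaf stage; 3 cm flood depth kept constant; visual control rating 0–100 after 13–14 days greenhouse growth.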

barnyardgrass [6] = assay: Test C preemergence; assay type: in vivo, Echinochloa crusgalli; conditions: preemergence, 0 to 100 scale (0 no effect, 100 complete control)
Method in brief: as §1

barnyardgrass [7] = assay: Test D flooded paddy test; assay type: in vivo, Echinochloa crus-galli; conditions: 250 g ai/ha, applied to paddy water, visual rating after 13 to 14 days, scale 0 to 100 (0 no effect, 100 complete control)
Method in brief: as §2

corn [8] = assay: Test C preemergence; assay type: in vivo, Zea mays; conditions: preemergence, 0 to 100 scale (0 no effect, 100 complete control)
Method in brief: as §1

ragweed [9] = assay: Test C preemergence; assay type: in vivo, Ambrosia artemisiifolia; conditions: preemergence, 0 to 100 scale (0 no effect, 100 complete control)
Method in brief: as §1

galium = assay: Test C postemergence; assay type: in vivo, Galium aparine; conditions: postemergence, 10 days
Method in brief: as §1

green foxtail [10] = assay: Test C postemergence; assay type: in vivo, Setaria viridis; conditions: postemergence, 10 days
Method in brief: as §1

rice = assay: Test D flooded paddy test; assay type: in vivo, Oryza sativa; conditions: 250 g ai/ha, applied to paddy water, visual rating after 13 to 14 days, scale 0 to 100 (0 no effect, 100 complete control)
Method in brief: as §2

wheat [11] = assay: Test C postemergence; assay type: in vivo, Triticum aestivum; conditions: postemergence, 10 days
Method in brief: as §1

pigweed, palmer [12] = assay: Test C preemergence; assay type: in vivo, Amaranthus palmeri; conditions: preemergence, 0 to 100 scale (0 no effect, 100 complete control)
Method in brief: as §1

blackgrass [13] = assay: Test C preemergence; assay type: in vivo, Alopecurus myosuroides; conditions: preemergence, 0 to 100 scale (0 no effect, 100 complete control)
Method in brief: as §1

oat, wild [14] = assay: Test C postemergence; assay type: in vivo, Avena fatua; conditions: postemergence, 10 days
Method in brief: as §1

wheat [15] = assay: Test C preemergence; assay type: in vivo, Triticum aestivum; conditions: preemergence, 0 to 100 scale (0 no effect, 100 complete control)
Method in brief: as §1

ryegrass, Italian [16] = assay: Test C preemergence; assay type: in vivo, Lolium multiflorum; conditions: preemergence, 0 to 100 scale (0 no effect, 100 complete control)
Method in brief: as §1

soybean [17] = assay: Test C postemergence; assay type: in vivo, Glycine max; conditions: postemergence, 10 days
Method in brief: as §1

pigweed, palmer [18] = assay: Test C postemergence; assay type: in vivo, Amaranthus palmeri; conditions: postemergence, 10 days
Method in brief: as §1

sedge, umbrella = assay: Test D flooded paddy test; assay type: in vivo, Cyperus difformis; conditions: 250 g ai/ha, applied to paddy water, visual rating after 13 to 14 days, scale 0 to 100 (0 no effect, 100 complete control)
Method in brief: as §2

kochia [19] = assay: Test C postemergence; assay type: in vivo, Bassia scoparia; conditions: postemergence, 10 days
Method in brief: as §1

green foxtail [20] = assay: Test C preemergence; assay type: in vivo, Setaria viridis; conditions: preemergence, 0 to 100 scale (0 no effect, 100 complete control)
Method in brief: as §1

ryegrass, Italian [21] = assay: Test C postemergence; assay type: in vivo, Lolium multiflorum; conditions: postemergence, 10 days
Method in brief: as §1

barnyardgrass [22] = assay: Test C postemergence; assay type: in vivo, Echinochloa crusgalli; conditions: postemergence, 10 days
Method in brief: as §1

oat, wild [23] = assay: Test C preemergence; assay type: in vivo, Avena fatua; conditions: preemergence, 0 to 100 scale (0 no effect, 100 complete control)
Method in brief: as §1

[24] = 125 g ai/ha, 0 to 100 scale, 0 no effect, 100 complete control
[25] = 500 g ai/ha, 0 to 100 scale (0 no effect, 100 complete control)

CCc1ncn(-c2ccc(C)c(C(=O)N3CC(C(F)(F)F)Oc4c(Cl)cccc43)c2)n1 (racemic) [Compound 290]
Plant response rating, Ragweed (ragweed [1]; [24]): 70
Plant response rating, Ragweed (ragweed [1]; [25]): 80
Soybean plant response rating (soybean [2]; 500 g ai/ha): 80
Soybean plant response rating (soybean [2]; Test C, 125 g ai/ha): 90
Kochia plant response rating (kochia [3]; 500 g ai/ha): 90
Kochia plant response rating (kochia [3]; Test C, 125 g ai/ha): 90
Plant response rating, Blackgrass (blackgrass [4]; [24]): 10
Plant response rating, Blackgrass (blackgrass [4]; [25]): 90
Plant response rating, Corn (corn [5]; [24]): 30
Plant response rating, Corn (corn [5]; [25]): 30
Plant response rating, Horseweed (horseweed; [24]): 40
Plant response rating, Horseweed (horseweed; [25]): 40
Plant response rating, Ducksalad (Flood) (ducksalad): 50
Barnyardgrass plant response rating (barnyardgrass [6]; 500 g ai/ha): 100
Barnyardgrass plant response rating (barnyardgrass [6]; Test C, 125 g ai/ha): 90
Plant response rating, Barnyardgrass (Flood) (barnyardgrass [7]): 10
Corn plant response rating (corn [8]; 500 g ai/ha): 40
Corn plant response rating (corn [8]; Test C, 125 g ai/ha): 30
Ragweed plant response rating (ragweed [9]; 500 g ai/ha): 70
Ragweed plant response rating (ragweed [9]; Test C, 125 g ai/ha): 60
Plant response rating, Galium (galium; [24]): 100
Plant response rating, Galium (galium; [25]): 100
Plant response rating, Foxtail, Green (green foxtail [10]; [24]): 80
Plant response rating, Foxtail, Green (green foxtail [10]; [25]): 90
Plant response rating, Rice (Flood) (rice): 10
Plant response rating, Wheat (wheat [11]; [24]): 30
Plant response rating, Wheat (wheat [11]; [25]): 60
Pigweed, Palmer plant response rating (pigweed, palmer [12]; 500 g ai/ha): 100
Pigweed, Palmer plant response rating (pigweed, palmer [12]; Test C, 125 g ai/ha): 100
Blackgrass plant response rating (blackgrass [13]; 500 g ai/ha): 70
Blackgrass plant response rating (blackgrass [13]; Test C, 125 g ai/ha): 70
Plant response rating, Oat, Wild (oat, wild [14]; [24]): 10
Plant response rating, Oat, Wild (oat, wild [14]; [25]): 90
Wheat plant response rating (wheat [15]; 500 g ai/ha): 50
Wheat plant response rating (wheat [15]; Test C, 125 g ai/ha): 30
Ryegrass, Italian plant response rating (ryegrass, Italian [16]; 500 g ai/ha): 100
Ryegrass, Italian plant response rating (ryegrass, Italian [16]; Test C, 125 g ai/ha): 90
Plant response rating, Soybean (soybean [17]; [24]): 100
Plant response rating, Soybean (soybean [17]; [25]): 100
Plant response rating, Pigweed, Palmer (pigweed, palmer [18]; [24]): 100
Plant response rating, Pigweed, Palmer (pigweed, palmer [18]; [25]): 100
Plant response rating, Sedge, Umbrella (Flood) (sedge, umbrella): 85
Plant response rating, Kochia (kochia [19]; [24]): 80
Plant response rating, Kochia (kochia [19]; [25]): 90
Foxtail, Green plant response rating (green foxtail [20]; 500 g ai/ha): 100
Foxtail, Green plant response rating (green foxtail [20]; Test C, 125 g ai/ha): 100
Plant response rating, Ryegrass, Italian (ryegrass, Italian [21]; [24]): 50
Plant response rating, Ryegrass, Italian (ryegrass, Italian [21]; [25]): 90
Plant response rating, Barnyardgrass (barnyardgrass [22]; [24]): 50
Plant response rating, Barnyardgrass (barnyardgrass [22]; [25]): 90
Oat, Wild plant response rating (oat, wild [23]; 500 g ai/ha): 90
Oat, Wild plant response rating (oat, wild [23]; Test C, 125 g ai/ha): 70
